In the supplement of paper PMC10307832:

How the values were obtained:
Assay in all cases: relative viability (nuclei count vs DMSO), 5 days (fraction); higher = more cells survive
Ispinesib + OSI-027 = compound: Cc1ccc(C(=O)N(CCCN)[C@@H](c2nc3cc(Cl)ccc3c(=O)n2Cc2ccccc2)C(C)C)cc1 [Ispinesib] + COc1cccc2cc(-c3nc([C@H]4CC[C@H](C(=O)O)CC4)n4ncnc(N)c34)[nH]c12 [OSI-027] (partner 0.5 µM)
Summary of the method: (§1)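 Dosing by pin tool came one day after lung cancer cell lines were seeded in 1536-well plates, using either one drug or a fixed anchor-drug dose plus five library-drug doses (not always all listed) in √10 steps. After 5 days, nuclei were counted on 4× images. Relative viability is treated-well nuclei count divided by vehicle-well nuclei count, and values are medians of duplicate plates.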

Linsitinib + Pemetrexed = compound: C[C@]1(O)C[C@@H](c2nc(-c3ccc4ccc(-c5ccccc5)nc4c3)c3c(N)nccn32)C1 [Linsitinib] + Nc1nc2[nH]cc(CCc3ccc(C(=O)N[C@@H](CCC(=O)O)C(=O)O)cc3)c2c(=O)[nH]1 [Pemetrexed] (partner 0.2 µM)
Summary of the method: as §1

Linsitinib + Lapatinib = compound: C[C@]1(O)C[C@@H](c2nc(-c3ccc4ccc(-c5ccccc5)nc4c3)c3c(N)nccn32)C1 [Linsitinib] + CS(=O)(=O)CCNCc1ccc(-c2ccc3ncnc(Nc4ccc(OCc5cccc(F)c5)c(Cl)c4)c3c2)o1 [Lapatinib] (partner 2 µM)
Summary of the method: as §1

Ispinesib + Phenformin = compound: Cc1ccc(C(=O)N(CCCN)[C@@H](c2nc3cc(Cl)ccc3c(=O)n2Cc2ccccc2)C(C)C)cc1 [Ispinesib] + N=C(N)NC(=N)NCCc1ccccc1 [Phenformin] (partner 250 µM)
Summary of the method: as §1

Cell Line	relative viability (Ispinesib + OSI-027; first compound 0.001 µM)	relative viability (Ispinesib + OSI-027; first compound 0.003162 µM)	relative viability (Ispinesib + OSI-027; first compound 0.01 µM)	relative viability (Ispinesib + OSI-027; first compound 0.03162 µM)	relative viability (Ispinesib + OSI-027; first compound 0.1 µM)	relative viability (Linsitinib + Pemetrexed; first compound 0.01 µM)	relative viability (Linsitinib + Pemetrexed; first compound 0.03162 µM)	relative viability (Linsitinib + Pemetrexed; first compound 0.1 µM)	relative viability (Linsitinib + Pemetrexed; first compound 0.3162 µM)	relative viability (Linsitinib + Pemetrexed; first compound 1 µM)	relative viability (Linsitinib + Lapatinib; first compound 0.01 µM)	relative viability (Linsitinib + Lapatinib; first compound 0.03162 µM)	relative viability (Linsitinib + Lapatinib; first compound 0.1 µM)	relative viability (Linsitinib + Lapatinib; first compound 0.3162 µM)	relative viability (Linsitinib + Lapatinib; first compound 1 µM)	relative viability (Ispinesib + Phenformin; first compound 0.001 µM)	relative viability (Ispinesib + Phenformin; first compound 0.003162 µM)	relative viability (Ispinesib + Phenformin; first compound 0.01 µM)	relative viability (Ispinesib + Phenformin; first compound 0.03162 µM)	relative viability (Ispinesib + Phenformin; first compound 0.1 µM)
NCI-H661	0.744	0.831	0.721	0.493	0.263	0.904	0.738	0.9	0.935	0.895	0.566	0.501	0.514	0.691	0.424	0.288	0.299	0.224	0.195	0.216
NCI-H520	0.249	0.218	0.276	0.19	0.169	0.623	0.377	0.762		0.598	0.934	0.462	0.979		0.929	0.535	0.571	0.382	0.251	0.222
NCI-H1563	0.841	0.768	0.834	0.843	0.536	0.791	0.883	0.718	1.09	0.752	0.949	1.05	1.03	0.591	0.856	0.663	0.685	0.696	0.63	0.54
NCI-H2405	0.655	0.657	0.755	0.635	0.389	1.08	1.09	1.06	0.787	0.762	1.12	1.04	1.07	0.887	0.735	0.41	0.408	0.705	0.361	0.289
LCLC-97TM1	0.629	0.616	0.553	0.239	0.12	0.157	0.159	0.188	0.124	0.157	0.953	0.75	0.639	0.403	0.193	0.356	0.435	0.486	0.336	0.129
NCI-H2228	0.609	0.553	0.636	0.222	0.209	0.398	0.297	0.357	0.311	0.331	0.978	0.839	1.08	0.663	0.8	0.283	0.312	0.321	0.126	0.145
LK-2	0.2	0.256	0.194	0.176	0.213	0.123	0.285	0.148	0.215	0.153	0.899	0.995	0.844	0.657	0.695	0.377	0.475	0.4	0.318	0.291
PC-3 [JPC-3]	0.703	0.841	0.851	0.627	0.431	1.13	1.04	1.2	0.891	0.665	0.43	0.455	0.405	0.369	0.373	0.494	0.475	0.44	0.461	0.254
